Test results as given in patent publication US20200023038A1, “METHOD OF TREATING NEOPLASIAS” (PARANTA BIOSCIENCES LIMITED, priority 2015, published 2020).
Entries after “also recorded” stand apart in the source; their conditions may differ.

Legend:
NCI-H358 = assay: Sensitization of cells to platinum with TGFBR1 and ACVR1B inhibitor; type: cell-based, human; conditions: NCI-H358, 5 μM SB-505124 pre-treatment 24 hours, then carboplatin 3 days
Method: (§1) 5000 cells per well were plated in quadruplicates in RPMI with 1% heat-inactivated NCS (HiNCS) and Glutamax and allowed to adhere overnight. Media was then removed and either vehicle or 5 μM SB-505124 was added and incubated for 24 hours. Media was then removed and replaced with media containing increasing concentrations of carboplatin with either vehicle or 5 μM SB-505124. After 3 days of incubation Alamar Blue was added and plates were incubated for 2.5 hours before being read using Fluostar Optima Plate Reader.

[1] = system: A549 lung adenocarcinoma cells; assay: Sensitization of cells to platinum/alkylating agent with TGFBR1 and ACVR1B inhibitor; type: cell-based, human
Method: 10,000 cells per well were plated in to a 96 well plate. […] Plates are left to incubate for 3 days with an Alamar Blue reading performed at end point.
as §1

TAK1 = assay: Western blot of phospho-TAK1; type: cell-based, human
Method: Cell lysates were prepared using RIPA buffer with the addition of Halt Protease and Phosphatase Inhibitor Cocktails. Gel electrophoresis and transfer was performed using the BioRad MiniProtean System according to manufacturer's instructions. Phospho-TAK1 was detected using the combination of Rabbit anti-Phospho-TAK1 and anti-Rabbit IgG, HRP linked primary and secondary antibodies respectively.

[2] = system: A549 lung adenocarcinoma cells; assay: DNA damage response, γH2AX confocal immunofluorescence; type: cell-based, human; conditions: 24 hr carboplatin, increasing concentrations
Method: DNA damage induced by platinum was visualised by confocal immunofluorescence microscopy. A549 lung adenocarcinoma cells were treated with appropriate primary and secondary antibodies to visualise γH2AX and the DNA counterstain DAPI following 24 hr treatment with increasing concentrations of carboplatin.

LX22CL cells = assay: Innate platinum responsiveness, Alamar Blue viability over carboplatin concentrations; type: cell-based, human; conditions: chemonaive SCLC line LX22CL, 3 days
[3] = system: A549 lung adenocarcinoma cell line; assay: as above; type: cell-based, human; conditions: chemonaive A549, 3 days
Method: The A549 lung adenocarcinoma cell line was originally derived from a smoker prior to treatment with chemotherapy. This chemonaive cell line carrying a common KRAS mutation was chosen as the primary cell line for modelling innate platinum responsiveness. Platinum responsiveness of A549 lung adenocarcinoma cell line was assessed against a wide range of carboplatin concentrations. […] 10,000 cells per well were plated in to a 96 well plate. […] Plates are left to incubate for 3 days with an Alamar Blue reading performed at end point. Curves of cell death in response to the respective alkylating agent were generated by graphing fluorescence (as a measure of cell viability) vs the alkylating agent concentration.

A549 flank xenografts = assay: In vivo modelling of platinum resistance, xenograft; set-up: species or system athymic nude mice; conditions: carboplatin 60 mg/kg day 0 or 2 μg FST day −1, +1, +3, +5, intraperitoneally
Method: Follistatin (FST) is a molecule that is known for its role in regulating the activities of TGFβ superfamily members, including activin and GDF11, both of which were identified as important players in chemoresistance of non-small cell lung carcinoma (NSCLC) cells (see Example 2). Therefore, the effects of FST on inducing sensitization of NSCLC cells to platinum therapy were assessed in an in vivo xenograft model. Athymic nude mice bearing A549 flank xenografts were treated with combinations of vehicle control, 60 mg/kg carboplatin on day 0, and/or 2 μg FST on day -1, +1, +3 and +5. Five mice were randomized in to each of the treatment groups and treatments started when the tumour size was 200 mm^3. Tumour volumes were measured daily and the animals were culled when the tumour size reached over 500 mm^3. Athymic nude mice bearing A549 flank xenografts were treated with combinations of vehicle control, 60 mg/kg carboplatin on day 0, and/or 2 μg FST on day -1, +1, +3 and +5 administered intraperitoneally. Recombinant human Follistatin 288 (FST) was used in all experiments. FST was provided by […] Biosciences Ltd.

[4] = background statement; cited from earlier work

Cc1cccc(-c2[nH]c(C(C)(C)C)nc2-c2ccc3c(c2)OCO3)n1 [SB-505124]
sensitization to platinum (carboplatin) (NCI-H358): showed sensitization to platinum; also recorded: sensitized
sensitization to platinum (carboplatin) ([1]; A549, 5 μM SB-505124 pre-treatment 24 hours, then carboplatin 3 days): induced sensitization to platinum; also recorded: sensitized
sensitization to busulfan ([1]; A549, SB-505124 pre-treatment then busulfan range): showed sensitization
sensitization to cisplatin ([1]; A549, SB-505124 pre-treatment then cisplatin range): showed sensitization
activation of TAK1 (phosphorylated TAK1 level) (TAK1; A549 and NCI-H358 cells, SB-505124 pre-treatment then carboplatin): inhibited the activation of TAK1

N.N.O=C([O-])C1(C(=O)[O-])CCC1.[Pt+2] [carboplatin]
DNA damage (γH2AX) [2]: effect DNA damage, at much lower concentrations than is required to induce cell death
platinum responsiveness (survival against carboplatin concentration) (LX22CL cells): shows sensitivity to carboplatin
platinum responsiveness (survival against carboplatin concentration) [3]: exhibits an active resistance mechanism
tumour growth, agent alone (A549 flank xenografts): did not affect tumour growth
phosphorylated TAK1 (activated form) levels (TAK1; cells treated with carboplatin): upregulated

N.N.[Cl][Pt][Cl] [trans-DDP, trans-diamminedichloroplatinum (II)]
activity against tumours [4]: ineffective against tumours
